Assays:
[1] = target: Adenosine receptor A2a (Rattus norvegicus, UniProt P30543); experiment: Binding affinity against Adenosine A2a receptor from rat striata
[2] = target: Adenosine receptors; A1 & A2a (Rattus norvegicus) (UniProt P25099+P30543); experiment: Ratio of Ki for A2A and A1 receptors; format: protein assay
[3] = target: T1, Adenosine receptor A1 (Rattus norvegicus, UniProt P25099); experiment: Binding affinity for rat brain Adenosine A1 receptor
T1 sequence (P25099 whole entry): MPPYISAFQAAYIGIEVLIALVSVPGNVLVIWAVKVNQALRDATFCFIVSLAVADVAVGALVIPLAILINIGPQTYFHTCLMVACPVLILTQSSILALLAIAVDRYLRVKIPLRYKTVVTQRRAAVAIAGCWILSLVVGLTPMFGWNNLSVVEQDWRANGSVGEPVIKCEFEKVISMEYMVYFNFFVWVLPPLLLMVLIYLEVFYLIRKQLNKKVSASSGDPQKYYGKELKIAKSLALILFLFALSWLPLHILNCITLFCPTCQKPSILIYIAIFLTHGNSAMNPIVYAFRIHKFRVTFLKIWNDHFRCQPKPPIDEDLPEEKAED

[4] = target: Adenosine receptor A2a (Rattus norvegicus) (UniProt P30543); experiment: Binding affinity against Adenosine A2a receptor from rat striata at a concentration of 10e-3 uM
Sequence of Adenosine receptor A2a (Rattus norvegicus) (P30543 whole entry): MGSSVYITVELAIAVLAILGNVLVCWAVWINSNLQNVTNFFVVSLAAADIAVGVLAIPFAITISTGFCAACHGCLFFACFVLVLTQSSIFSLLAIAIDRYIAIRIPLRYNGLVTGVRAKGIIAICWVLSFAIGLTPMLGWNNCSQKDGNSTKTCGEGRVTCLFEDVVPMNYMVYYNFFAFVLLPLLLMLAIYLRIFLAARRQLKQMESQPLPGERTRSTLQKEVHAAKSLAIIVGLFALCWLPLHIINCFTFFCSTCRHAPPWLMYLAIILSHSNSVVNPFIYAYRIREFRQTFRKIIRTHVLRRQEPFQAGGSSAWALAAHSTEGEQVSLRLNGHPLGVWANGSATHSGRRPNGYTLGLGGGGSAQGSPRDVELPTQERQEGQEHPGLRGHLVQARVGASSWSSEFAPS

Sequence of Adenosine receptors; A1 & A2a (Rattus norvegicus) (P30543 whole entry, looked up, one chain of several): as the sequence (P30543 whole entry) above
Sequence of Adenosine receptor A2a (P30543 whole entry): as above

| SMILES | Ki [1] [µM] | Ratio [2] | Ki [3] [µM] | inhibition [4] [%] |
| --- | --- | --- | --- | --- |
| CCCOC1=Nc2c(cnn2-c2ccccc2)C2=N[C@@H](Cc3ccccc3)CN12 | 3.3 | 0.35 | – | – |
| OC[C@@H]1OC(n2cnc3c2N=CN2C[C@H](Cc4ccccc4)N=C32)[C@@H](O)[C@H]1O (some centres undefined) | 57.1 | 19 | 2.99 | – |
| OC[C@@H]1OC(n2cnc3c2N=CN2C[C@@H](Cc4ccccc4)N=C32)[C@@H](O)[C@H]1O (some centres undefined) | 13.5 | 6 | 2.23 | – |
| CCCOC1=Nc2c(ncn2-c2ccccc2)C2=N[C@@H](Cc3ccccc3)CN12 | – | 0.18 | – | – |
| CCCOC1=Nc2c(cnn2-c2ccccc2)C2=N[C@@H](C)[C@H](c3ccccc3)N12 | 45 | 1.4 | – | – |
| CCCOC1=Nc2c(ncn2-c2ccccc2)C2=N[C@H](Cc3ccccc3)CN12 | 72 | 22 | – | – |
| C[C@@H]1N=C2c3ncn(C4O[C@@H](CO)[C@H](O)[C@@H]4O)c3N=CN2[C@H]1c1ccccc1 (some centres undefined) | – | 70 | 11.2 | 45 |
| CCCOC1=Nc2c(cnn2-c2ccccc2)C2=N[C@H](Cc3ccccc3)CN12 | > 100 | > 100 | – | – |
| C[C@H]1N=C2c3ncn(C4O[C@@H](CO)[C@H](O)[C@@H]4O)c3N=CN2[C@@H]1c1ccccc1 (some centres undefined) | 55.5 | 4.4 | 12.6 | – |
| CCCOC1=Nc2c(cnn2-c2ccccc2)C2=N[C@H](C)[C@@H](c3ccccc3)N12 | 11 | 1.5 | – | – |
| OC[C@@H]1OC(n2cnc3c2N=CN2C[C@H](c4ccccc4)N=C32)[C@@H](O)[C@H]1O (some centres undefined) | 189 | 42 | 4.54 | – |
| OC[C@@H]1OC(n2cnc3c2N=CN2C[C@@H](c4ccccc4)N=C32)[C@@H](O)[C@H]1O (some centres undefined) | 17.5 | 4.6 | 3.82 | – |
